Entries after “also recorded” stand apart in the source; their conditions may differ.
Experiments:
mushroom tyrosinase = test: Diphenolase; format: biochemical; settings: diphenolase activity
[1] = tested on: Melanoma cell lines (NCBI Code: C136; human skin); test: Cytotoxicity assay; format: cell-based; settings: melanoma cells, 24 hr, MTT

SMILES | Inhibition (reversibility) (mushroom tyrosinase) | Inhibition type (mushroom tyrosinase) | effect on melanoma cell viability / cytotoxicity (in words) [1]
Nc1ccccc1C(=O)O [2-amino benzoic acid] | reversibly | noncompetitive | no significant change
Nc1ccc(C(=O)O)cc1 [4-amino benzoic acid] | reversibly | noncompetitive | no significant change
O=C(O)c1cccnc1 [Nicotinic acid, nicotinic acid] | reversibly | competitive | declined remarkably; also recorded: cytotoxic effects
O=C(O)c1ccccn1 [Picolinic acid, picolinic acid] | reversibly | competitive | declined remarkably; also recorded: cytotoxic effects

Source: PMC4366722 (Iranian Journal of Basic Medical Sciences, 2015)
